Experiment [1] has as its system Staphylococcus aureus. Briefly: Induction of membrane integrity impairment in methicillin-resistant Staphylococcus aureus ATCC 700699 at 3.125 to 12.5 uM measured for 30 mins by DiOC2(3) probe based fluorescence assay. The experiment is classed as functional, organism-based.
The subject of experiment [2] is Staphylococcus aureus. In words: Antibacterial activity against mid-exponential growth phase of methicillin-resistant Staphylococcus aureus ATCC 700699 assessed as increase in cell lysis at 25 uM. It is filed as functional, organism-based.
The subject of experiment [3] is Staphylococcus aureus. Briefly: Induction of membrane integrity impairment in methicillin-resistant Staphylococcus aureus ATCC 700699 at 20 uM measured for 30 mins by DiOC2(3) probe based fluorescence assay. It is filed as functional, organism-based.
The test system of experiment [4] is Staphylococcus aureus. Briefly: Bactericidal activity against methicillin-resistant Staphylococcus aureus ATCC 700699 assessed as reduction in bacterial CFU at 4 times MIC measured for 30 mins. The experiment is classed as functional.
Experiment [5] deals with Staphylococcus aureus. Briefly: Induction of membrane integrity impairment in methicillin-resistant Staphylococcus aureus ATCC 700699 at 10 uM measured for 3 hrs by PI staining based fluorescence assay. The experiment is classed as functional, organism-based.

Active and inactive are the calls of the source. The rule behind the calls is not given here.

As to `N#CC(C#N)=NNc1cccc(Cl)c1`, the outcome in experiment [1] was Active.
For the molecule `COc1c(N2C[C@@H]3CCCN[C@@H]3C2)c(F)cc2c(=O)c(C(=O)O)cn(C3CC3)c12`, the outcome in experiment [2], in experiment [3], in experiment [4] and in experiment [5] was inactive.
